Values joined by “and” are separate entries in the source; they are usually repeats but may differ in a detail not shown here. Equal values may be shown once.
Tested on: Donor 1 COP T-Cell Lines
Assay: Multiplex bead cytokine assay (FlowCytoMix), Donor 1 COP T-cell lines
Format: cell-based, human
Description: Culture medium was removed from cultures prepared as for proliferation assay and utilized to measure cytokine production. In most cases culture medium was collected 18-24 hours after mixing T-cells, APC, and stimulating antigen. Cytokine production was measured by ELISA or bead assay. For measuring cytokine production, 100-150 μL culture medium (100 μL if culture was to be continued, otherwise 150 μL) was removed from each well. In some cases, the culture was continued 48 hours, for a total of 72 hours of culture, and the proliferative response measured.
The concentration of multiple cytokines was measured simultaneously using FlowCytoMix™ kits (eBioscience, San Diego Calif.). These are fluorescent bead based assays consisting of beads conjugated to anti cytokine antibodies. Beads specific for each cytokine are distinguished by size and fluorescence at 670 run. Cytokine bound to each bead is detected using a phycoerythrin conjugated antibody so that the fluorescence at 585 nm reflects the concentration of cytokine in the sample. Two kits were utilized which measured different cytokine panels. The TH1/TH2 kit measures IFN-γ, IL-1β, IL-2, IL-4, IL-5, IL-6, IL-8, IL-10, IL-12p70, TNF-α (TNF) and TNF-β (LT). The TH1/TH2/TH9/TH17/TH22 kit measures […], IL-1β, IL-2, IL-4, IL-5, IL-6, IL-9, IL-10, IL-12p70, IL-13, IL-17, IL-22, and TNF-α (TNF). Both kits were used following the manufacturer's instructions.
IL-12p70, IFN-γ, IL-2, IL-10, IL-8, IL-6, IL-5, IL-4, IL-1β, TNF-α (TNF), and TNF-β (LT) secretion were measured in response to stimulation with 1, 3, or 10 μg/mL GMA, or 1, 3, or 10 μg/mL COP, as well as a no-antigen control and an MBP control, in the presence of autologous EBV-transformed B-LCL.

[1] = 222-1C5, MBP control antigen, 24 hours after Day 56 restimulation
[2] = 222-2B8, MBP control antigen, 24 hours after Day 56 restimulation
[3] = 222-2E1, MBP control antigen, 24 hours after Day 56 restimulation
[4] = 222-B11 (so in the source), MBP control antigen, 24 hours after Day 56 restimulation
[5] = 222-1C5, 1 μg/mL, 24 hours after Day 56 restimulation
[6] = 222-1C5, 3 μg/mL, 24 hours after Day 56 restimulation
[7] = 222-1C5, 10 μg/mL, 24 hours after Day 56 restimulation
[8] = 222-1C5, 10 μg/mL, Day 34 supernatants
[9] = 222-1H12, 10 μg/mL, Day 34 supernatants
[10] = 222-2B8, 1 μg/mL, 24 hours after Day 56 restimulation
[11] = 222-2B8, 3 μg/mL, 24 hours after Day 56 restimulation
[12] = 222-2B8, 10 μg/mL, 24 hours after Day 56 restimulation
[13] = 222-2D2, 10 μg/mL, Day 34 supernatants
[14] = 222-2D8, 10 μg/mL, Day 34 supernatants
[15] = 222-2E1, 1 μg/mL, 24 hours after Day 56 restimulation
[16] = 222-2E1, 3 μg/mL, 24 hours after Day 56 restimulation
[17] = 222-2E1, 10 μg/mL, 24 hours after Day 56 restimulation
[18] = 222-B11 (so in the source), 1 μg/mL, 24 hours after Day 56 restimulation
[19] = 222-B11 (so in the source), 3 μg/mL, 24 hours after Day 56 restimulation
[20] = 222-B11 (so in the source), 10 μg/mL, 24 hours after Day 56 restimulation

FFKNIVTPRTPPPSQGK [MBP]
IFN-γ [1]: 64 pg/mL
IL-2 [1]: 0 pg/mL
IL-5 [1]: 0 pg/mL
IL-10 [1]: 0 pg/mL
IL-13 [1]: 82 pg/mL
IL-22 [1]: 36 pg/mL
TNF-α [1]: 9 pg/mL
IFN-γ [2]: 0 pg/mL
IL-2 [2]: 0 pg/mL
IL-5 [2]: 0 pg/mL
IL-10 [2]: 0 pg/mL
IL-13 [2]: 26.77 pg/mL
IL-22 [2]: 20.62 pg/mL
TNF-α [2]: 0 pg/mL
IFN-γ [3]: 20.69 pg/mL
IL-2 [3]: 42.43 pg/mL
IL-5 [3]: 0 pg/mL
IL-10 [3]: 2.28 pg/mL and 2.3 pg/mL
IL-13 [3]: 51.1 pg/mL
IL-22 [3]: 107.54 pg/mL
TNF-α [3]: 13.51 pg/mL
IFN-γ [4]: 0 pg/mL
IL-2 [4]: 0 pg/mL
IL-5 [4]: 0 pg/mL
IL-10 [4]: 0 pg/mL
IL-13 [4]: 0.83 pg/mL
IL-22 [4]: 0 pg/mL
TNF-α [4]: 0 pg/mL

glatiramer acetate [COP]
IFN-γ [5]: 158 pg/mL
IL-2 [5]: 0 pg/mL
IL-5 [5]: 0 pg/mL
IL-10 [5]: 11 pg/mL
IL-13 [5]: 129 pg/mL
IL-22 [5]: 0 pg/mL
TNF-α [5]: 11 pg/mL
IFN-γ [6]: 256 pg/mL
IL-2 [6]: 0 pg/mL
IL-5 [6]: 0 pg/mL
IL-10 [6]: 16 pg/mL
IL-13 [6]: 254 pg/mL
IL-22 [6]: 32 pg/mL
TNF-α [6]: 42 pg/mL
IFN-γ [7]: 585 pg/mL
IL-2 [7]: 40 pg/mL
IL-5 [7]: 0 pg/mL
IL-10 [7]: 49 pg/mL
IL-13 [7]: 837 pg/mL
IL-22 [7]: 42 pg/mL
TNF-α [7]: 42 pg/mL
IFN-γ [8]: 416.83 pg/mL
IL-1β [8]: <= 0 pg/mL
IL-2 [8]: <= 0 pg/mL
IL-5 [8]: 56.39 pg/mL
IL-8 [8]: <= 0 pg/mL
IL-10 [8]: 50.58 pg/mL
TNF-α [8]: <= 0 pg/mL
TNF-β [8]: 15.34 pg/mL
IFN-γ [9]: 3626 pg/mL
IL-1β [9]: 59 pg/mL
IL-2 [9]: 0 pg/mL
IL-4 [9]: 0 pg/mL
IL-5 [9]: 398 pg/mL
IL-10 [9]: 240 pg/mL
TNF-α [9]: 22 pg/mL
TNF-β [9]: 98 pg/mL
IFN-γ [10]: 8.46 pg/mL
IL-2 [10]: 0 pg/mL
IL-5 [10]: 0 pg/mL
IL-10 [10]: 2.99 pg/mL
IL-13 [10]: 204.31 pg/mL
IL-22 [10]: 83.01 pg/mL
TNF-α [10]: 0 pg/mL
IFN-γ [11]: 39.91 pg/mL
IL-2 [11]: 19.65 pg/mL
IL-5 [11]: 30.3 pg/mL
IL-10 [11]: 2.83 pg/mL
IL-13 [11]: 1028.23 pg/mL
IL-22 [11]: 77.82 pg/mL
TNF-α [11]: 0 pg/mL
IFN-γ [12]: 119.12 pg/mL
IL-2 [12]: 0 pg/mL
IL-5 [12]: 314.77 pg/mL
IL-10 [12]: 36.16 pg/mL
IL-13 [12]: 2825.8 pg/mL
IL-22 [12]: 143.57 pg/mL
TNF-α [12]: 91.29 pg/mL
IFN-γ [13]: 120 pg/mL
IL-1β [13]: 130.9 pg/mL
IL-2 [13]: 210.47 pg/mL
IL-5 [13]: 38.13 pg/mL
IL-8 [13]: 0.85 pg/mL
IL-10 [13]: 45.09 pg/mL
TNF-α [13]: 30.87 pg/mL
TNF-β [13]: 23.15 pg/mL
IL-4, IL-6, or IL-12 detected (222-2D8, 222-1H12, 222-1C5, 222-2D2, Day 34 supernatants): Little or no
IFN-γ [14]: 3296 pg/mL
IL-1β [14]: 2535 pg/mL
IL-2 [14]: 0 pg/mL
IL-4 [14]: 0 pg/mL
IL-5 [14]: 1587 pg/mL
IL-10 [14]: 100 pg/mL
TNF-α [14]: 493 pg/mL
TNF-β [14]: 267 pg/mL
IFN-γ [15]: 53.73 pg/mL
IL-2 [15]: 26.46 pg/mL
IL-5 [15]: 0 pg/mL
IL-10 [15]: 5.3 pg/mL
IL-13 [15]: 165.79 pg/mL
IL-22 [15]: 72.54 pg/mL
TNF-α [15]: 25.28 pg/mL
IFN-γ [16]: 163.61 pg/mL
IL-2 [16]: 40.39 pg/mL
IL-5 [16]: 0 pg/mL
IL-10 [16]: 12.19 pg/mL
IL-13 [16]: 1037.93 pg/mL
IL-22 [16]: 40.37 pg/mL
TNF-α [16]: 0 pg/mL
IFN-γ [17]: 405.26 pg/mL
IL-2 [17]: 0 pg/mL
IL-5 [17]: 106.24 pg/mL
IL-10 [17]: 22 pg/mL
IL-13 [17]: 2046.94 pg/mL
IL-22 [17]: 60.95 pg/mL
TNF-α [17]: 333.22 pg/mL
IFN-γ [18]: 0.65 pg/mL
IL-2 [18]: 63.02 pg/mL
IL-5 [18]: 0 pg/mL
IL-10 [18]: 0 pg/mL
IL-13 [18]: 47.69 pg/mL
IL-22 [18]: 69.37 pg/mL
TNF-α [18]: 0 pg/mL
IFN-γ [19]: 0 pg/mL
IL-2 [19]: 0 pg/mL
IL-5 [19]: 0 pg/mL
IL-10 [19]: 0 pg/mL
IL-13 [19]: 105.51 pg/mL
IL-22 [19]: 45.67 pg/mL
TNF-α [19]: 0 pg/mL
IFN-γ [20]: 47.35 pg/mL
IL-2 [20]: 0 pg/mL
IL-5 [20]: 119 pg/mL
IL-10 [20]: 11.27 pg/mL
IL-13 [20]: 1839.63 pg/mL
IL-22 [20]: 19.45 pg/mL
TNF-α [20]: 13.51 pg/mL
IFN-γ production (Line 105 (so in the source), Table 14 = 222-1C5, after appropriate dilution of supernatants): comparable amounts

Reference: patent US9995734B2, “Human T cell line assay for evaluating the immunologic identity of glatiramer acetate preparations” (Mylan Inc., priority 2013, dated 2018)
